Reference: the supplement of paper PMC10627819

Legend:
S. pneumoniae D39V [1] = assay: fitness (endpoint OD595 vs no drug) (fraction); higher = more growth
How it was run: (§1)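 At 37 °C, bacteria in TSB, LB Lennox or CY were grown in 384-well plates from a starting OD595 of 0.01. OD595 was measured every 30 min for 14 h, with the first reading used as background. Fitness is the optical density at the switch to stationary phase as a fraction of the robust mean of no-drug control wells, capped at 1.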

B. subtilis 168 [2] = assay: as above
How it was run: as §1

S. aureus Newman = assay: Bliss interaction score (quartile over a dose matrix) (fitness difference); higher = more antagonism (negative = synergy)
How it was run: (§2)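 Fitness was derived from optical density at entry into stationary phase, divided by the robust mean of the no-drug wells on the same plate. That reading was taken as OD595, and the ratio was capped at 1. Single-drug fitness was inferred from the combination data. The Bliss score, observed fitness minus the expected product of single-drug fitness, was summarised as quartiles over technical, biological and donor/recipient replicates.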

S. pneumoniae D39V [3] = assay: as above
How it was run: as §2

S. aureus DSM 20231 = assay: as above
How it was run: as §2

B. subtilis 168 [4] = assay: as above
How it was run: as §2
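Throughout, for Bliss interaction score (quartile over a dose matrix): first quartile when negative (synergy) and third quartile when positive (antagonism).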

Cc1ncc([N+](=O)[O-])n1CCO [Metronidazole] + CCC(C)C1C(=O)NC(=C)C(=O)NC(C(=O)NC(CSCC(C(=O)N1)NC(=O)/C(=C/C)/NC(=O)C(C(C)CC)N)C(=O)NC2C(SCC(NC(=O)CNC(=O)C3CCCN3C2=O)C(=O)NC(CCCCN)C(=O)NC4C(SCC(NC(=O)CNC(=O)C(NC(=O)C(NC(=O)C(NC(=O)CNC4=O)C)CC(C)C)CCSC)C(=O)NC(CC(=O)N)C(=O)NC(CCSC)C(=O)NC(CCCCN)C(=O)NC5C(SCC6C(=O)NC(C(=O)NC(CSC(C(C(=O)N6)NC(=O)C(NC5=O)C)C)C(=O)NC(CO)C(=O)NC(C(C)CC)C(=O)NC(CC7=CN=CN7)C(=O)NC(C(C)C)C(=O)NC(=C)C(=O)NC(CCCCN)C(=O)O)CC8=CN=CN8)C)C)C)CC(C)C [Nisin]
S. pneumoniae D39V [1], main component drawn
Settings	fitness
first compound 1.073 µg/mL, partner 3.2 µg/mL	0.0352
first compound 1.073 µg/mL, partner 6.4 µg/mL	0.0007
first compound 1.25 µg/mL, partner 0.4275 µg/mL	≥ 1
first compound 1.25 µg/mL, partner 0.855 µg/mL	≥ 1
first compound 1.25 µg/mL, partner 1.71 µg/mL	0.127
first compound 2.145 µg/mL, partner 1.6 µg/mL	0.809
first compound 2.145 µg/mL, partner 3.2 µg/mL	0.0201
first compound 2.145 µg/mL, partner 6.4 µg/mL	0
first compound 2.5 µg/mL, partner 0.4275 µg/mL	≥ 1
first compound 2.5 µg/mL, partner 0.855 µg/mL	≥ 1
first compound 2.5 µg/mL, partner 1.71 µg/mL	0.121
first compound 4.29 µg/mL, partner 1.6 µg/mL	0.747
first compound 4.29 µg/mL, partner 3.2 µg/mL	0.0174
first compound 4.29 µg/mL, partner 6.4 µg/mL	0
first compound 5 µg/mL, partner 0.4275 µg/mL	0.968
first compound 5 µg/mL, partner 0.855 µg/mL	≥ 1
first compound 5 µg/mL, partner 1.71 µg/mL	0.1

fitness, B. subtilis 168 [2], one replicate, main component drawn
Settings	first compound 0.625 µg/mL	first compound 1.25 µg/mL	first compound 2.5 µg/mL
partner 0.5 µg/mL	0.831	0.806	0.795
partner 1 µg/mL	0.838	0.797	0.803
partner 1.25 µg/mL	0.909	0.939	0.91
partner 1.6 µg/mL	0.796	0.809	0.755
partner 2 µg/mL	0.571	0.528	0.537
partner 2.5 µg/mL	0.366	0.666	0.616
partner 3.2 µg/mL	0.0225	0.03	0.0513
partner 4 µg/mL	0.61	0.534	0.333
partner 5 µg/mL	0.0544	0.0891	0.149
partner 6.4 µg/mL	0.0311	0.0509	0.0479
partner 8 µg/mL	0.0261	0.0271	0.0234
partner 16 µg/mL	0.0228	0.0235	0.015

main component drawn
Settings	Bliss interaction score
B. subtilis 168 [4]	0.0914
S. aureus DSM 20231	0.153
S. aureus Newman	0.0893
S. pneumoniae D39V [3]	0.0647

O=C(O)c1cn(C2CC2)c2cc(N3CCNCC3)c(F)cc2c1=O [Ciprofloxacin] + C[C@H]1c2cccc(O)c2C(=O)C2=C(O)[C@]3(O)C(=O)C(C(N)=O)=C(O)[C@@H](N(C)C)[C@@H]3[C@@H](O)[C@@H]21 [Doxycycline]
fitness, S. pneumoniae D39V [1], one replicate
Settings	first compound 0.125 µg/mL	first compound 0.25 µg/mL	first compound 0.5 µg/mL
partner 0.003875 µg/mL	≥ 1	0.931	0.804
partner 0.00775 µg/mL	0.967	0.913	0.825

fitness
Settings	partner 0.0155 µg/mL	partner 0.02 µg/mL	partner 0.031 µg/mL	partner 0.04 µg/mL	partner 0.08 µg/mL
B. subtilis 168 [2], first compound 0.0098 µg/mL	–	0.879	–	0.813	0.677
B. subtilis 168 [2], first compound 0.0195 µg/mL	–	0.726	–	0.688	0.58
S. pneumoniae D39V [1], first compound 0.125 µg/mL	0.891	–	0.742	–	–
S. pneumoniae D39V [1], first compound 0.25 µg/mL	0.892	–	0.703	–	–

Settings	Bliss interaction score
B. subtilis 168 [4]	0.183
S. aureus DSM 20231	0.0661
S. aureus Newman	0.0631
S. pneumoniae D39V [3]	0.0673

COc1cccc2c1C(=O)c1c(O)c3c(c(O)c1C2=O)C[C@@](O)(C(=O)CO)C[C@@H]3O[C@H]1C[C@H](N)[C@H](O)[C@H](C)O1 [Doxorubicin] + CCC(C)C1C(=O)NC(=C)C(=O)NC(C(=O)NC(CSCC(C(=O)N1)NC(=O)/C(=C/C)/NC(=O)C(C(C)CC)N)C(=O)NC2C(SCC(NC(=O)CNC(=O)C3CCCN3C2=O)C(=O)NC(CCCCN)C(=O)NC4C(SCC(NC(=O)CNC(=O)C(NC(=O)C(NC(=O)C(NC(=O)CNC4=O)C)CC(C)C)CCSC)C(=O)NC(CC(=O)N)C(=O)NC(CCSC)C(=O)NC(CCCCN)C(=O)NC5C(SCC6C(=O)NC(C(=O)NC(CSC(C(C(=O)N6)NC(=O)C(NC5=O)C)C)C(=O)NC(CO)C(=O)NC(C(C)CC)C(=O)NC(CC7=CN=CN7)C(=O)NC(C(C)C)C(=O)NC(=C)C(=O)NC(CCCCN)C(=O)O)CC8=CN=CN8)C)C)C)CC(C)C [Nisin]
main component drawn
Settings	fitness
B. subtilis 168 [2], first compound 0.625 µg/mL, partner 0.5 µg/mL	0.882
B. subtilis 168 [2], first compound 0.625 µg/mL, partner 1 µg/mL	0.852
B. subtilis 168 [2], first compound 0.625 µg/mL, partner 2 µg/mL	0.459
B. subtilis 168 [2], first compound 1.25 µg/mL, partner 0.5 µg/mL	0.821
B. subtilis 168 [2], first compound 1.25 µg/mL, partner 1 µg/mL	0.83
B. subtilis 168 [2], first compound 1.25 µg/mL, partner 2 µg/mL	0.567
B. subtilis 168 [2], first compound 2.5 µg/mL, partner 0.5 µg/mL	0.688
B. subtilis 168 [2], first compound 2.5 µg/mL, partner 1 µg/mL	0.603
B. subtilis 168 [2], first compound 2.5 µg/mL, partner 2 µg/mL	0.19
S. pneumoniae D39V [1], first compound 0.25 µg/mL, partner 0.4275 µg/mL	0.998
S. pneumoniae D39V [1], first compound 0.25 µg/mL, partner 0.855 µg/mL	0.991
S. pneumoniae D39V [1], first compound 0.25 µg/mL, partner 1.6 µg/mL	0.0164
S. pneumoniae D39V [1], first compound 0.25 µg/mL, partner 1.71 µg/mL	0.0746
S. pneumoniae D39V [1], first compound 0.25 µg/mL, partner 3.2 µg/mL	0.0268
S. pneumoniae D39V [1], first compound 0.25 µg/mL, partner 6.4 µg/mL	0.0249
S. pneumoniae D39V [1], first compound 0.5 µg/mL, partner 0.4275 µg/mL	0.977
S. pneumoniae D39V [1], first compound 0.5 µg/mL, partner 0.855 µg/mL	0.91
S. pneumoniae D39V [1], first compound 0.5 µg/mL, partner 1.6 µg/mL	0.0215
S. pneumoniae D39V [1], first compound 0.5 µg/mL, partner 1.71 µg/mL	0.0797
S. pneumoniae D39V [1], first compound 0.5 µg/mL, partner 3.2 µg/mL	0.0424
S. pneumoniae D39V [1], first compound 0.5 µg/mL, partner 6.4 µg/mL	0.039
S. pneumoniae D39V [1], first compound 1 µg/mL, partner 0.4275 µg/mL	0.844
S. pneumoniae D39V [1], first compound 1 µg/mL, partner 1.6 µg/mL	0.0081
S. pneumoniae D39V [1], first compound 1 µg/mL, partner 1.71 µg/mL	0.065
S. pneumoniae D39V [1], first compound 1 µg/mL, partner 3.2 µg/mL	0.0126
S. pneumoniae D39V [1], first compound 1 µg/mL, partner 6.4 µg/mL	0.0281

fitness, B. subtilis 168 [2], one replicate, main component drawn
Settings	partner 1.25 µg/mL	partner 1.6 µg/mL	partner 2.5 µg/mL	partner 3.2 µg/mL	partner 4 µg/mL	partner 5 µg/mL	partner 6.4 µg/mL	partner 8 µg/mL	partner 16 µg/mL
first compound 0.625 µg/mL	≥ 1	0.646	0.612	0.0265	0.0271	0.0205	0.0251	0.0074	0.0185
first compound 1.25 µg/mL	0.996	0.742	0.659	0.0085	0.0489	0.0315	0.0249	0.0463	0.0265
first compound 2.5 µg/mL	0.888	0.178	0.451	0.0274	0.0327	0.0219	0.0137	0.0311	0.0578

main component drawn
Settings	Bliss interaction score
B. subtilis 168 [4]	0.0614
S. aureus DSM 20231	0.0625
S. aureus Newman	-0.0646
S. pneumoniae D39V [3]	-0.0536
